Patent publication US12006302B2, “Tau PET imaging ligands” (Janssen Pharmaceutica NV, priority 2016, dated 2024)

Legend:
[1] = system: NFTs / cortical tau-rich regions; test: digital autoradiography with [18F]Co. No. 1 on human AD visual cortex slices, with blocking; format: binding; details: for inhibition of [18F]Co. No. 1 binding: blocker 1 μM, human AD visual cortex slices
Protocol: Adjacent slices were immunostained for tau pathology (B, AT8) and for amyloid beta pathology (C, 4G8).
a) Air-dried frozen, 10-μm-thick slices of the visual cortex of an AD-patient (with Braak stage V-VI) were incubated for 60 min with [^18F]Co. No. 1 (7.4 kBq/500 μL per slice) and subsequently washed with mixtures of PBS and ethanol as described elsewhere (Xia C. F., Arteaga J., Chen G., et al. Alzheimer's Dement. 2013, 1-11). To assess specificity of binding, slices were incubated with tracer in the presence of 1 μM of authentic T808 or Co. No. 1. After drying, slices were exposed to a phosphor storage screen (super-resolution screen, Perkin Elmer). Screens were read in a Cyclone Plus system (Perkin Elmer, Waltham, MA, U.S.A.) and analyzed using Optiquant software. Results are expressed as digital light units per square mm (DLU/mm^2). Adjacent AD slices were immunostained with anti-tau (AT8) and anti-Aβ antibodies (4G8), to correlate with [^18F]Co. No. 1 binding.

[2] = molecular target: aggregated tau (Homo sapiens, UniProt P10636); details: literature; cited from earlier work
[3] = system: tau pathology in human AD slices; test: [18F]Co. No. 1 binding to human AD tissue in the presence of MAO binders; details: 0.2 mCi/mL tracer; for effect on [18F]Co. No. 1 binding pattern in human AD slices: compound 10 μM
Protocol: c) Binding of [^18F] Co. No. 1 to human AD tissue was assessed in the presence of reported MAO binders. […] This binding pattern was maintained when the sample was incubated with 10 μM of clorgiline, a strong irreversible MAO binder with moderate selectivity for the A-subtype (FIG. 7B), or 10 μM selegiline (=deprenyl), a strong irreversible MAO-B binder (FIG. 7C). The binding of [^18F] […] Adjacent AD slices were immunostained with anti-tau (AT8) and anti-Aβ (4G8) antibodies to correlate with [^18F]Co. No. 1 binding (FIG. 8).

[4] = microPET imaging, Wistar rats; format: in vivo, Wistar rat; details: for SUV value at 60 min p.i. (brain wash-out) / initial brain uptake, high intensity SUV value in the brain: baseline scan, whole brain; for initial brain uptake, high intensity SUV value in the brain: IV about 50 MBq; for effect of pre-treatment / chase with cold compound on brain uptake: pre-treatment 10 mg/kg SC 60 min before, chase 1 mg/kg IV 30 min after tracer
Protocol: Three separate studies are shown: a baseline scan (only tracer), a pre-treatment experiment (cold Co. No. 1 or T807, 10 mg/kg injected subcutaneously 60 min prior to radiotracer injection), and a chase study (cold Co. No. 1 or T807, 1 mg/kg injected intravenously 30 min after radiotracer injection).
A dynamic 120-min μPET scan with [^18F]Co. No. 1 or [^18F]T807 was acquired on a Focus 220 μPET scanner (Concorde Microsystems, Knoxville, TN, U.S.A.) on three female Wistar rats simultaneously. The rats were kept under gas anaesthesia during the whole procedure (2.5% isoflurane in O2 at 1 L/min flow rate). Scans were acquired in list mode and acquisition data were Fourier rebinned in 24 time frames (4×15 s, 4×60 s, 5×180 s, 8×300 s, 3×600 s). Data, which were 3D maximum a posteriori (3D-MAP) reconstructed, were manually aligned with a rat brain ^18F-FDG template in Paxinos coordinates using an affine transformation, to allow predefined volumes of interest (VOIs) analysis (Casteels C., et al. J. Nucl. Med. 2006, 47, 1858-1866). Time-activity curves (TACs) of the whole brain were generated using VOIs with PMOD software (v 3.2, PMOD Technologies, Zürich, Switzerland). Radioactivity concentration in the brain was expressed as standardized uptake value (SUV, calculated as (radioactivity in Bq in brain/mL)/(total injected dose (Bq)/body weight in g)) as a function of time after tracer injection. Scans were started immediately after IV injection of about 50 MBq radiotracer (n=3/tracer). For pre-treatment and displacement studies, cold reference compound Co. No. 1 or T807 was dissolved in a mixture of 5% DMSO, 5% Tween 80 and 40% (2-hydroxypropyl)-β-cyclodextrin, filtered through a 0.22-μm membrane filter (Millex-GV. Millipore) prior to injection. Pre-treatment (n=1) was done by subcutaneous (SC) injection of 10 mg/kg of Co. No. 1 or T807, 60 min prior to radiotracer injection. Displacement (n=1) was performed by IV injection of 1 mg/kg Co. No. 1 or T807 30 min after radiotracer injection. μPET images were compared to a baseline scan (n=1), acquired in a non-treated rat.

[5] = microPET imaging, rhesus monkey; format: in vivo, rhesus monkey (Macaca mulatta); details: baseline scan; for initial brain uptake, SUV value: total brain, IV 185 MBq
Protocol: A dynamic 120-min μPET scan with [^18F]Co. No. 1 or [^18F]T807 was performed with a Focus 220 μPET scanner on a rhesus monkey (6 y-old male Macaca mulatta, 7.6 kg), that was sedated with ketamine (Ketalar®) and xylazine (Rompun®) via intramuscular (IM) injection. During scanning the monkey received repeatedly an additional dose of ketamine/xylazine via IV injection. O2 saturation in blood, breathing frequency and heartbeat frequency were monitored during the entire experiment. The head of the animal was placed central in the field of view of the μPET scanner. Scans were acquired in list mode and Fourier rebinned in 24 time frames (4×15 s, 4×60 s, 5×180 s, 8×300 s, 3×600 s). Data were reconstructed using a 3D maximum a posteriori (3D-MAP) iterative reconstruction. TACs of the whole brain were generated using VOIs with PMOD software. Radioactivity concentration in the brain is expressed as SUV as a function of time after tracer injection. Scans were started immediately after IV injection of 185 MBq of [^18F]Co. No. 1 or [^18F]T807 via the vena saphena of the right leg. For the pre-treatment study, cold reference compound Co. No. 1 was dissolved in a mixture of 10% DMSO and 40% (2-hydroxypropyl)-o-cyclodextrin, filtered through a 0.22-μm membrane filter (Millex-GV, Millipore) prior to injection. Pre-treatment (n=1) was done by IV co-injection of 1 mg/kg of cold Co. No. 1 and radiotracer solution. μPET images were compared to a baseline scan (n=1), acquired in the non-treated monkey.

[6] = molecular target: extracted human tau aggregates (Homo sapiens, UniProt P10636); test: competitive radioligand binding assay, [3H]-T808 displacement
Protocol: Briefly, frozen human AD brain samples (˜10 g) were homogenized with 10 vol of cold homogenization buffer (10 mM Tris, 800 mM NaCl, 1 mM EGTA, 10% sucrose, pH 7.4 containing PhosSTOP phosphatase and cOmplete EDTA-free protease inhibitor (Roche, Vilvoorde, Belgium)) on ice. After centrifugation at 27 000×g for 20 min at 4° C. the supernatant was recovered and 1% (w/v) N-lauroylsarcosine and 1% (v/v) 2-mercaptoethanol were added. The N-lauroylsarcosine/2-mercaptoethanol supernatant was incubated for 2 h at 37° C. while shaking on an orbital shaker. Subsequently, ultracentrifugation at 108 000×g for 1.5 h at room temperature enriched aggregated tau in the pellet. Supernatant was removed and the pellet was carefully rinsed twice with a small amount of TBS (50 mM Tris, 150 mM NaCl, pH 7.4). […]
Briefly, aggregated tau preps were diluted to 100 μg protein/mi in PBS buffer with 5% ethanol. […] After overnight drying of the filter plate, Microscint O liquid (Perkin Elmer) was added and the amount of radiolabeled ligand bound to the fibrils is measured by liquid scintillation counting in a Topcount instrument (Packard Instrument Company, Connecticut, USA).
(§1) Values for half-maximal inhibitory concentration (IC50) were determined from displacement curves of at least two independent experiments using GraphPad Prism software (GraphPad Software, San Diego, CA).

[7] = molecular target: T1, extracted human amyloid-beta aggregates (Homo sapiens, UniProt P05067); test: competitive radioligand binding assay, [3H]-AV-45 displacement
T1 construct: amyloid plaques which form by aggregation of beta-amyloid peptide; from tissue; host or cells: human AD brain, occipital cortex with high amyloid plaque load
Protocol: Enriched aggregated β-amyloid preps were prepared from frozen human AD brain samples (10 g—occipital cortex with high amyloid plaques load) that were homogenized with 7-fold vol of cold homogenization buffer (250 mM sucrose, 20 mM Tris base, 1 mM EDTA, 1 mM EGTA and PhosSTOP phosphatase and cOmplete EDTA-free protease inhibitor) on ice. After centrifugation at 27 000×g for 20 min at 4° C. cell debris was removed. Supernatant containing amyloid plaques was aliquoted and stored at −80° C.
The competitive radioligand binding assays measure the binding of a radiolabeled reference ligand in the presence of a dose response concentration range of test compounds.
as §1
To determine compound binding to aggregated β-amyloid a similar assay was put in place but with some minor modifications. […] Nonspecific binding was determined in the presence of 500 μM Thioflavin T. After 150 min incubation at room temperature, the binding mixtures were filtered over GF/B glass filters. […]

[8] = system: MAO; test: in vitro binding of tritiated tracers to MAO-rich human tissue (striatum); details: cold compound 10 μM; 10 nM [3H]-THK-5351
Protocol: The tracer was tested at 10 nM and higher concentrations were not investigated in this study.
In comparison, the tau tracer [^3H]-THK-5351 and the Aβ tracer [^3H]-AV-45 were used as THK-5351 is known to also bind MAO.

Sequence of aggregated tau (P10636 1-441 isoform P10636-8): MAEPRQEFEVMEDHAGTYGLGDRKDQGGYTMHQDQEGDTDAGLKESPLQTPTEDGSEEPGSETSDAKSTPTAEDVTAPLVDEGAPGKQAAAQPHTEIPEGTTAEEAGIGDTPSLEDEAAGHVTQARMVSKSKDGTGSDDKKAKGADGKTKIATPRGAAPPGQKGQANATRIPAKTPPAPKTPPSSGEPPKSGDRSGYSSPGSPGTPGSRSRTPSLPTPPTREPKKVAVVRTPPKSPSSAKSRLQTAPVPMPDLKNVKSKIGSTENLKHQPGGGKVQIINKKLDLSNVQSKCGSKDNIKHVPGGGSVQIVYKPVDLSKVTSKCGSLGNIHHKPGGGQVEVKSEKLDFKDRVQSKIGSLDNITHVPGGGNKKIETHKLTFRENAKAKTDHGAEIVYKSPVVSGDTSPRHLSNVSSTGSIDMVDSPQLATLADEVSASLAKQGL
T1 sequence (P05067 672-713 limits assumed): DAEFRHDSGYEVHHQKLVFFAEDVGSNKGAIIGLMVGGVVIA
Sequence of extracted human tau aggregates (P10636 623-695 limits assumed): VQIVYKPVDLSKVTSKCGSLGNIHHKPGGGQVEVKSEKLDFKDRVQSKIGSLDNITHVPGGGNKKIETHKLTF

FCCC1CCN(c2ccn3c(n2)nc2ccccc23)CC1 [T808]
inhibition of [18F]Co. No. 1 binding [1]: 99% | Kd [2]: 22 nM | selectivity for tau over Aβ aggregates [2]: 27 fold

C#CCN(C)CCCOc1ccc(Cl)cc1Cl [clorgiline, reference compound]
effect on [18F]Co. No. 1 binding pattern in human AD slices [3]: maintained

Cc1cnc(Nc2ccc3cnccc3c2)cc1[18F] [[^18F]Co. No. 1]
tracer binding in digital autoradiography ([1]; 7.4 kBq/500 μL per slice, human AD slices): high and selective binding to cortical tau-rich regions | tracer binding to tau pathology in human AD slices [3]: strong binding | SUV value at 60 min p.i. (brain wash-out) [4]: 0.2 | initial brain uptake, high intensity SUV value in the brain [4]: ~2.0 | effect of pre-treatment / chase with cold compound on brain uptake [4]: No self-blocking or self-chase effect | brain wash-out [5]: rapid wash-out | distribution over brain regions [5]: homogeneous distribution | initial brain uptake, SUV value [5]: ~5.4

Cl.FCCCOc1ccc(Nc2ccc3cnccc3c2)nc1
melting point: 249.3 °C

FCCOc1ccc(Nc2ccc3cnccc3c2)nc1 [Co. No. 9]
melting point: 104.6 °C

C#CCN(C)[C@H](C)Cc1ccccc1 [selegiline, reference compound]
effect on [18F]Co. No. 1 binding pattern in human AD slices [3]: maintained

Cc1cnc(Nc2ccc3cnccc3c2)cc1F [Co. No. 1]
IC50 ([6]; displacement of [3H]-T808 (10 nM), read-out: pIC50, binding to extracted human tau aggregates (converted)): 5.75 nM | Ki ([6]; displacement of [3H]-T808, read-out: Ki corresponding to pIC50, extracted human tau (converted)): 2.4 nM | IC50 ([7]; displacement of [3H]-AV-45 (10 nM), read-out: pIC50, binding to extracted human amyloid-beta aggregates (converted)): 6610 nM | Ki ([7]; displacement of [3H]-AV-45, read-out: Ki corresponding to pIC50, extracted human amyloid-beta aggregates (converted)): 3200 nM | inhibition of [18F]Co. No. 1 binding [1]: 99% | blocking of [3H]-THK-5351 binding to MAO-rich human tissue [8]: blocked | effect on [18F]Co. No. 1 binding pattern in human AD slices [3]: entirely blocked | melting point: 182.53 °C

[18F]c1ccc(-c2ccc3c(c2)[nH]c2ccncc23)cn1 [[^18F]T807, reference compound]
SUV value at 60 min p.i. (brain wash-out) [4]: 0.4 | initial brain uptake, high intensity SUV value in the brain [4]: ~1.8 | effect of pre-treatment / chase with cold compound on brain uptake [4]: Lower brain uptake during the baseline scan | brain wash-out [5]: slower | initial brain uptake, SUV value [5]: ~1.3

CNc1ccc(-c2ccc3cc(OC[C@H](O)CF)ccc3n2)cn1 [THK-5351, reference compound]
blocking of [3H]-THK-5351 binding to MAO-rich human tissue [8]: self-blocked

Cl.FCCCNc1ccc(Nc2ccc3cnccc3c2)nc1
melting point: 285.1 °C

Cc1ccc(Nc2ccc3cnccc3c2)nc1F [Co. No. 2]
melting point: 203.3 °C

FCCNc1ccc(Nc2ccc3cnccc3c2)nc1 [Co. No. 5]
melting point: 191.4 °C

FCCc1ccc(Nc2ccc3cnccc3c2)nc1 [Co. No. 3]
melting point: 208.5 °C

FCOc1ccc(Nc2ccc3cnccc3c2)nc1 [Co. No. 4]
melting point: 173.1 °C

CN(CCF)c1ccc(Nc2ccc3cnccc3c2)nc1 [Co. No. 6]
melting point: 146.3 °C
